# Assay results taken from patent US11753484B2, “Cellulose ether-lactam hybrid polymers, compositions, and methods for preparing and using the hybrid polymers” (HERCULES LLC, priority 2017, dated 2023).
# Assays:
# [1] = Dissolution of Efavirenz spray dried dispersions in pH 6.8 phosphate buffer media (Pion μDiss Profiler); assay type: physicochemical
# Protocol: (§1) The active pharmaceutical ingredient (API) and polymer were mixed in a 30:70 ratio and spray-dried into a spray dried dispersion (SDD). The following are the solution preparation and spray drying process information. Solution preparation: Efavirenz and polymers were dissolved in a 2:1 (w/w) mixture of acetone:methanol solution at a total 3% solid loading. Dissolution of all components was visually confirmed before spray drying. Spray drying: Spray drying was performed on a GEA-Niro SD Micro spray dryer. All dispersions were spray dried targeting an inlet gas temperature of 85° C., 25 kg/hour process gas flow, 0.5 barr atomization gas pressure, 1.5 kg/hour atomizing gas flow, and an adjustable liquid feed rate targeting an outlet gas temperature of 55° C. The feed solution was held at ambient conditions. Dissolution: The dissolution tests were conducted using Pion μDiss Profiler with in situ Fiber Optic UV-Vis Monitoring. 66.7 mg spray dried dispersion (SDD) was weighed and tested in the dissolution, with 30% drug loading level (20 mg API). The controlled reference used in dissolution testing is pure API Efavirenz (20 mg). The quantity of dissolution media is 20 mL. The API concentrations were monitored for 2 hours. For each sample, triplicate measurements were taken and the average results were reported. Fasted Simulated Intestine Fluid (FaSSIF), as well as pH 6.8 phosphate buffer, were used to perform the dissolution. FaSSIF is virtually the same as the small intestinal juices present when one hasn't eaten any food, and contain bile salts and phospholipids, physiologically relevant surfactants which are missing from typical dissolution media. The use of FaSSIF media can help to better correlate the in vitro dissolution property and the in vivo response (IVIVC), so as to further understand the API performance in actual human body. Meanwhile, pH 6.8 phosphate buffer medium was also used in the study, as it was more typically used in formulation development/screening process, pH 6.8 phosphate buffer medium is not as indicated as FaSSIF medium in terms of establishing the IVIVC. […]
# [2] = BCS-2 type drug; cited from earlier work
# [3] = cited from earlier work
# [4] = Dissolution of Efavirenz spray dried dispersions in FaSSIF media (Pion μDiss Profiler); assay type: physicochemical
# Protocol: as §1
# [5] = description of the API; cited from earlier work
# [6] = Glass transition temperature (Tg) by differential scanning calorimetry; assay type: physicochemical; conditions: regular DSC, heat-cool-heat, 10° C./minute, second heating cycle
# Protocol: Differential Scanning Calorimetry (DSC): Glass transition temperature Tg is an important indicator of API physical stability against crystallization through storage. The higher Tg, the better physical stability. Generally speaking, if the Tg is equal to or higher than storage temperature+50° C., then the product is expected to be very stable throughout the entire shelf life. If the Tg is between storage temperature and temperature+50° C., then some stability issue may occur.
# The glass transition temperature (Tg) measurement were conducted using TA instrument, Q2000. For pure ingredients, regular DSC set up was used. A heat-cool-heat cycle with a heating rate of 10° C./minutes was implemented. The first heating cycle is used to standardize sample by erasing its thermal history, and the Tg from second heating cycle is reported. For SDD, modulated DSC set up was used. An average heating rate of 2° C./minute with modulation amplitude of 1° per 40 seconds was implemented.
# The measurement results are summarized below in the Table. […] Stable SDDs are expected from this indicator.
# [7] = 20 mg API in 20 mL, 30% drug load SDD (API:polymer 30:70), 2 hours, mean of triplicate
# [8] = Efavirenz concentration at 120 min, SDD 30:70
structure (smiles),measurement,setting,value
O=C1Nc2ccc(Cl)cc2[C@@](C#CC2CC2)(C(F)(F)F)O1 [Efavirenz],AUC,[1]; [7],960.92 µg·min/mL
same,relAUC,[1]; AUC of SDD vs AUC of neat API,1.0
same,C120,[1]; [8],9.924 µg/mL
same,aqueous solubility,[2],poor
same,partition coefficient in an octanol-water system (logP),[3],4.7
same,AUC,[4]; [7],18702.91 µg·min/mL
same,relAUC,[4]; AUC of SDD vs AUC of neat API,1.0
same,C120,[4]; [8],166.7892 µg/mL
same,glass transition temperature,[5],around 35 °C
same,"Tg, Pure ingredient",[6],34.9 °C
